The values that follow are results of earlier work, collected in article PMC5695669 (Journal of medicinal chemistry, 2012).

Data set [1] concerns guinea pig ileum longitudinal muscle-myenteric plexus. Conditions: read-out: GPI (IC50); functional bioactivity, ±SEM; ref [3].
The target in data set [2] is rMor (μ opioid receptor) (Rattus norvegicus, UniProt P33535). To be noted: [3H]DAMGO, ±SEM, ref [3].
Chain of rMor (μ opioid receptor) (P33535 whole entry): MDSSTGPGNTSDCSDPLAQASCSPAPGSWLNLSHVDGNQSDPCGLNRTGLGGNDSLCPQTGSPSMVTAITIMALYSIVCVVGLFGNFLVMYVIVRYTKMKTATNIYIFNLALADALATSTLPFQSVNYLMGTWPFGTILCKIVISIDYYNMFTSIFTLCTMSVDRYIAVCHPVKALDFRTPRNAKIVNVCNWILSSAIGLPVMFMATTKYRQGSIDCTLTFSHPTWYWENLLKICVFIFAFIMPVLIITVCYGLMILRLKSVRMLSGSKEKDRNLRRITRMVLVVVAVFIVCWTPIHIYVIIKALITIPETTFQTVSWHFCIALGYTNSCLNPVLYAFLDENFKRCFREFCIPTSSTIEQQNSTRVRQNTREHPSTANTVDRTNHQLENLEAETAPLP

In general, IC50 refers to the midpoint of a concentration-inhibition curve. For orientation: Ki means a measure of affinity in units of concentration, obtained from inhibition or displacement. As to “H-Tyr-Pro-Phe-Phe-NH2 (H-YPFF-NH2) [EM-2]”, the IC50 in data set [1] is 15 ± 2 nM. Besides, the Ki in data set [2] is 9.6 ± 0.98 nM.
